In the assay the test system is HIV. Nature of the assay: Assay for inhibitory activity against HIV (p24 ELISA, infected MT-4 cells). It is filed as cell-based. Particulars: Human immunodeficiency virus 1, MT4, MT-4 cells infected with pNL4-3-derived HIV, 48 hrs + additional 48 hrs culture, read-out: Conc. for Inhibition of HIV Activity (IC50). The protocol: The thiourea or urea derivatives of the present invention were assayed for inhibitory activity against HIV as follows.
A pNL4-3 vector carrying an HIV genome was transduced into 293FT cells. […] 293FT cells were seeded at a density of 3.0×10^5 cells/well into 6-well plates containing antibiotic-free DMEM supplemented with 10% FBS and grown for 48 hrs. Upon 90˜95% confluency, the transduction was performed.
The DNA (pNL4-3) was added at a final concentration of 10 ng/mL to 250 μL of the reduced serum medium Opti-MEM I (GIBCO™, USA). Separately, 4 μL of Lipofectamine™ 2000 (Invitrogen, USA) was mixed with 250 μL of Opti-MEM I (GIBCO™), and incubated at room temperature for 5 min. The DNA (pNL4-3) was mixed at a ratio of 1:2 with the lipofectamine and reacted at room temperature for 20 min to form a DNA-lipofectamine complex. After removal of the medium from the cell culture, the DNA-lipofectamine complex was added to the cells and incubated for 4 hrs in a CO2 incubator. Then, the cell culture medium was replaced with a fresh antibiotic-free, 10% FBS-supplemented DMEM, followed by incubation for an additional 48 hrs. The HIV-infected cell culture was centrifuged at 1,500 rpm for 5 min to give a virus supernatant.
MT-4 cells were plated at a density of 1.0×10^6 cells/mL into 6-well plates containing RPMI supplemented with 10% FBS, and incubated for 4 hrs before infection at a ratio of 1:1 with the virus supernatant. The cells were incubated for 48 hrs in a CO2 incubator, after which the culture medium was replaced with a fresh one. Again, incubation was continued for an additional 72 hrs to amplify the virus. After centrifugation at 1,500 rpm for 5 min, the virus supernatant thus obtained was examined for virus density using a Virononstika HIV-1 Antigen Microelisa system kit (bioMerieux, Inc. Netherland).
2. Assay for Inhibitory Activity against HIV
The thiourea or urea derivatives prepared in Examples 1 to 94 were dissolved in DMSO to prepare respective 10 mM or 20 mM stocks, and stored at −20° C. The stocks were diluted to a starting concentration of 200 μM in DMSO before use in experiments.
MT-4 cells were suspended at a density of 4×10^5 cells in 200 μL of RPMI 1640 (Gibco, 10% FBS) per well of 24-well plates, and infected with 200 μL of a virus supernatant containing 2×10^5 pg/mL to give a total volume of 400 μL. After the stocks of the thiourea or urea derivatives were […] to 200 μM in DMSO, 2 μL of each dilution was added to the cells to a final concentration of 1 μM or less. For a positive control, 10 μM AZT (azidothymidine,Sigma, USA) was used at a final concentration of 50 nM while DMSO was used at a final concentration of 0.5% as a negative control. The cells were cultured for 48 hrs in a CO2 incubator (37° C., 5% CO2), and the culture medium was replaced by RPMI 1640 containing the thiourea or urea derivative at a final concentration of 1 μM, followed by incubation for an additional 48 hrs. Virus soups were separated from cells by centrifugation at 1,500 rpm for 5 min and then at 13,000 rpm for 5 min. ELISA for p24 concentrations was carried out using a Virononstika HIV-1 Antigen Microelisa system kit (bioMerieux, Inc. Netherland) to determine the inhibitory activity of each of the thiourea or urea derivatives against HIV.
(ELISA stands for enzyme-linked immunosorbent assay.)

What is called IC50 is the point on the concentration scale where inhibition reaches its midpoint.

`CC(C)(C)c1ccc(C(=O)NC(=S)Nc2cccc3c(O)cccc23)cc1` [Example 1, 1-(4-tert-Butyl-benzoyl)-3-(5-hydroxy-naphthalen-1-yl)-thiourea]: the IC50 was determined as 30 nM.
Consider `CC(C)(C)c1ccc(C(=O)NC(=S)NC2CCCCC2)cc1` [Example 16, 1-(4-tert-butyl-benzoyl)-3-cyclohexyl-thiourea], for which the IC50 came to 500 nM.
Then `CC(C)(C)c1ccc(C(=O)NC(=S)Nc2ccccn2)cc1` [Example 37, 1-(4-tert-butyl-benzoyl)-3-(pyridin-2-yl)-thiourea], with 500 nM.
Consider `CC(C)(C)c1ccc(C(=O)NC(=S)Nc2cccc(Cl)c2)cc1` [Example 38, 1-(4-tert-butyl-benzoyl)-3-(3-chloro-phenyl)-thiourea], for which the half-maximal inhibitory concentration (IC50) turned out to be 300 nM.
Then `CC(C)(C)c1ccc(C(=O)NC(=S)Nc2cccc3ncccc23)cc1` [Example 50, 1-(4-tert-butyl-benzoyl)-3-(quinolin-5-yl)-thiourea], with 1000 nM.

For the origin of these results see patent US20130096138A1, “NOVEL THIOUREA OR UREA DERIVATIVE, PREPARATION METHOD THEREOF, AND PHARMACEUTICAL COMPOSITION FOR PREVENTING OR TREATING AIDS, CONTAINING SAME AS ACTIVE INGREDIENT” (AVIXGEN INC., priority 2010, published 2013).
